The record followed here is patent publication US12116358B2, “Substituted indoles and methods of use thereof” (EPIZYME, INC., priority 2018, dated 2024).

The target of experiment [1] is T1, SETD2(1434-1711) (Homo sapiens, UniProt Q9BYW2).
T1 construct: SETD2 (1434-1711) Assay; catalogue N/A
T1 sequence (Q9BYW2 1434-1711): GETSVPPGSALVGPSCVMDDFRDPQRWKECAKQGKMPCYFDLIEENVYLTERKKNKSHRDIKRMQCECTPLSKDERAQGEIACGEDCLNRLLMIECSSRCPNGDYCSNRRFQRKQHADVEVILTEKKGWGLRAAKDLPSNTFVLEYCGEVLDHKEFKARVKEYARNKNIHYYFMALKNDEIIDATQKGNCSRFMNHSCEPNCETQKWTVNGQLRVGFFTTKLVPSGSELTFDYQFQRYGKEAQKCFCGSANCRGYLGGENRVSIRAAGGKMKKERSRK
Briefly: SETD2 (1434-1711) assay. The format is biochemical. The conditions noted are these: read-out: SETD2 (1434-1711).

In experiment [2] the test system is H3K36me3 in A549 cells. The experiment is described as follows: In-Cell Western (ICW) assay of SETD2 inhibitors (A549 assay). The experiment is classed as cell-based, human. The conditions noted are these: A549 cells, read-out: SETD2 A549. Here is the method:
In-Cell Western (ICW) Assay of SETD2 Inhibitors (A549 Assay)
Representative Compounds of the Disclosure were tested in the A549 assay according the following protocol.
1. Reagents and Consumables:
Prepare plates with compounds. Seed A549 cells to the plates with compounds, 4,000 cells/well, 50 μl/well. Put the plates at room temperature on a non-vibrating surface for 20 minutes before placing in the incubator. Incubate the plate at 37° C. incubator with CO2 for 3 days. Remove plate from incubator and bring to room temperature. Blot media out of the plate and add 50 μL of ice cold 100% methanol. Incubate 30 minutes at room temperature. Remove methanol by aspiration. Wash 3× with PBST. Add 50 μL of Blocking Buffer+0.1% Tween 20. Incubate 1 hour. Remove Blocking Buffer, wash 3× with PBST. Add 20 μL of H3K36me3 (1:1000 dilution). […] Incubate overnight at 4° C. Wash plate 5× with PBS-T. Add 20 μL of DRAQ5 (1:1000) and IRDye 800CW Goat anti-Rabbit IgG (1:500). Incubate for 1 hour in the dark. Wash plate 5× with PBS-T. Wash plate 3× with water. Dry by blotting on paper towel, then centrifuge plate upside down on a thin layer of paper towels for 1 minute at 1000 rpm to remove excess reagent. Leave plate uncovered for ˜10 minutes out of direct light before reading. Read on Licor instrument.
4. Licor Instrument Settings:
Preset: Plate; Resolution: 84 μm; Quality: low; Focus offset: 4.0; 700 channel intensity: 2; and 800 channel intensity: 3.

Each structure is given as a SMILES string. Like-named read-outs stand apart in the source and are kept apart here. Some results are limits rather than exact numbers.

As to `Cc1ccc(F)c2cc(C(=O)Nc3cccc(C4COCCN4)c3)[nH]c12` (stereo not shown) [compound 307], the IC50 worked out at 0.2 µM in experiment [1] and 1.2 µM in experiment [2] (Homo sapiens).

`Cc1ccc(F)c2cc(C(=O)NC3CCCC(N4CCN(C(=O)C(C)C)C(C(F)(F)F)C4)C3)[nH]c12` (stereo not shown) [compound 1175]: the results for the IC50 in experiment [1] and in experiment [2] were 8.4 µM and more than 2 µM, respectively.

Consider `Cc1cc(C(=O)NC2CCN(C)CC2)c(C)nc1C(NC(=O)c1cc2cccc(C)c2[nH]1)C1CC1` (stereo not shown) [compound 529], for which the IC50 in experiment [1] amounted to 8.6 µM; in experiment [2] it was 24.9 µM.

`Cc1ccc(F)c2cc(C(=O)NC3CCCC(N4CCN5C(=O)OCC5C4)C3)[nH]c12` (stereo not shown) [compound 1136]: the IC50 was 0.7 µM in experiment [1] and more than 2 µM in experiment [2].

In the case of `CC(=O)N1CCN([C@H]2CCC[C@@H](NC(=O)c3cc4c(F)ccc(C)c4[nH]3)C2)C[C@H]1CO` [compound 1098], the IC50 in experiment [1] amounted to 0.03 µM; in experiment [2] (Homo sapiens) it was 0.3 µM.

Take `Cc1ccc(F)c2cc(C(=O)NC3CCCC(N4CCN5C(=O)CN(C)C(=O)C5C4)C3)[nH]c12` (stereo not shown) [compound 1104]: the IC50 is 0.04 µM in experiment [1] and 0.2 µM in experiment [2].

In the case of `Cc1cccc2cc(C(=O)Nc3ccc4ncncc4c3)[nH]c12` [compound 533], the results for the IC50 in experiment [1] and in experiment [2] were 0.4 µM and more than 25 µM, respectively.

On to `Cc1ccc(F)c2cc(C(=O)Nc3cccc(N4CCN(C5CC5)C(=O)C4)c3)[nH]c12` [compound 100], for which the values for the IC50 in experiment [1] and in experiment [2] were 0.03 µM and 0.2 µM, respectively.

Regarding `Cc1cc(CC(=O)O)cnc1C(NC(=O)c1cc2c(F)ccc(C)c2[nH]1)C1CC1` (stereo not shown) [compound 542], the values for the IC50 in experiment [1] and in experiment [2] (Homo sapiens) were 2.4 µM and more than 25 µM, respectively.

In the case of `Cc1ccc(F)c2cc(C(=O)NC3CCCC(N4CCC(N5CCOC5=O)C4)C3)[nH]c12` (stereo not shown) [compound 958], the figures for the IC50 in experiment [1] and in experiment [2] were 0.04 µM and 0.2 µM, respectively.

With `COCCN1CCN(c2cccc(NC(=O)c3cc4c(F)ccc(C)c4[nH]3)c2)CC1` [compound 223], the IC50 in experiment [1] is 0.09 µM; in experiment [2], 0.5 µM.

In the case of `Cc1ccc(F)c2cc(C(=O)NC3CCCC(N4CCC(N(C)C(=O)C5CC5)C4)C3)[nH]c12` (stereo not shown) [compound 972], the IC50 in experiment [1] is 4.9 µM; in experiment [2] it was more than 2 µM.

Consider `Cc1ccc(F)c2cc(C(=O)NC3CCCC(N4CCCOCC4)C3)[nH]c12` (stereo not shown) [compound 388], for which the IC50 in experiment [1] was more than 10 µM; in experiment [2], more than 2 µM.

As for `CC(=O)N1CCN(c2cccc(NC(=O)c3cc4c(F)ccc(Br)c4[nH]3)c2)CC1` [compound 84], the IC50 was found to be 0.04 µM in experiment [1] and 0.2 µM in experiment [2].

Consider `Cc1ccc(F)c2cc(C(=O)Nc3cc(F)cc(N4CCC(N5CCN(C)C(=O)C5)C4)c3)[nH]c12` (stereo not shown) [compound 17], for which the IC50 in experiment [1] was determined as 0.009 µM; in experiment [2], 0.05 µM.

On to `Cc1ccc(F)c2cc(C(=O)NCC3(c4ccccc4N4CCN(C)CC4)CC3)[nH]c12` [Cpd. No. 392, 4-fluoro-7-methyl-N-((1-(2-(4-methylpiperazin-1-yl)phenyl)cyclopropyl)methyl)-1H-indole-2-carboxamide], for which the IC50 in experiment [1] stood at 0.06 µM; in experiment [2] (Homo sapiens), 2 µM.

For the compound `CC(=O)N1CC2CC(C1)N2c1cccc(NC(=O)c2cc3c(F)ccc(C)c3[nH]2)c1` [compound 365], the figures for the IC50 in experiment [1] and in experiment [2] were 2.6 µM and more than 2 µM, respectively.

As to `Cc1ccc(F)c2cc(C(=O)Nc3cccc(C4(C#N)CCC(N(C)C)CC4)c3)[nH]c12` (stereo not shown) [compound 255], the IC50 was 0.03 µM in experiment [1] and 0.6 µM in experiment [2] (Homo sapiens).

Consider `Cc1ccc(F)c2cc(C(=O)NC(C(=O)NCc3ccccc3)c3ccccn3)[nH]c12` (stereo not shown) [compound 550], for which the IC50 in experiment [1] was 6.5 µM; in experiment [2], more than 25 µM.

Consider `COC1CN(C2CCN(c3cccc(NC(=O)c4cc5c(F)ccc(C)c5[nH]4)c3)CC2)C1` [compound 155], for which the IC50 was determined as 0.05 µM in experiment [1] and 0.3 µM in experiment [2] (Homo sapiens).

On to `Cc1ccc(F)c2cc(C(=O)Nc3cccc(N4CCOCC4C4CC4)c3)[nH]c12` (stereo not shown) [compound 306], for which the IC50 in experiment [1] was found to be 0.4 µM; in experiment [2] (Homo sapiens), 1.2 µM.

As for `Cc1cccnc1C(C)NC(=O)c1cc2cccc(C)c2[nH]1` (stereo not shown) [compound 480], the results for the IC50 in experiment [1] and in experiment [2] (Homo sapiens) were 7 µM and 9.5 µM, respectively.

For `Cc1ccc(F)c2cc(C(=O)NC3CCCC(N4CCN(C(=O)OC5CCOCC5)CC4)C3)[nH]c12` (stereo not shown) [compound 1000], the IC50 was 1.5 µM in experiment [1] and more than 2 µM in experiment [2].
